Among the data in patent publication US8598157B2, “5-alkynyl-pyridines” (Boehringer Ingelheim International GmbH, priority 2011, dated 2013) are EC50 and IC50 values, retold here.

Experiment [1] deals with BT474 cells. Put plainly: alamarBlue BT474 cell assay (antiproliferative/cytotoxicity). The following applies: BT-474 human breast cancer cell line. In kind it is cell-based. From the text: (§1) The H460, MB453, U87, MCF7 and BT474 alamarBlue cell assays provide EC50 values indicative of the antiproliferative or cytotoxic effects of the compounds to respectively the H460 (human non small cell line cancer), MB-453 (breast cancer cell line), U87 (glioblastoma cell line), MCF7 (breast cancer cell line) and BT474 (breast cancer cell line). As known in the field, antiproliferative or cytotoxic effect against this cell lines would be expected to be indicative of activity in treating lung, breast and brain cancers. See R. Marone R et al. Biochim. Biophys. Acta. 2008 January; 1784(1):159-85. S. Yaguchi et al., J. Natl. Cancer Inst. 2006 Apr. 19; 98(8):545-56.
(§2) Method Type: Antiproliferative/Cytotoxicity
(§3) alamarBlue® is designed to provide a rapid and sensitive measure of cell proliferation and cytotoxicity in various human and animal cell lines. The assay is based on the reduction of alamarBlue in the reducing environment of living (metabolically active) cells. In the presence of added cytotoxic or antiproliferative compounds, the innate metabolic activity ceases.
(§4) AlamarBlue is soluble and stable in culture medium. Measurements are made fluorometrically by exciting at 530-560 nm and measuring emission at 590 nm. In reporting percent alamarBlue reduction by monitoring fluorescence, data are expressed as fluorescence emission intensity units as a function of time of incubation.
(§5) 3. Equipment • 96-well plates, flat bottom (Falcon, Cat. No.: 353072) • 96-well plates, U-shaped (Costar, Cat. No.: 3799) • CO2-Incubator • Microplate Reader, Spectramax Plus, Molecular Devices 4. Typical Procedure • Day 0: Seed 3000 BT-474 cells (IMDM/5% FCS, 1% NEAA, 1% Sodiumpyruvat) in 150 μl medium into a 96-well plate, flat bottom (include mediumblank). Incubate plates at 37° C. in a CO2 incubator overnight. • Day 1: Dilute compounds to a concentration 40 μM->1:3 in medium, 10 dilution steps, in 96-well plates. • Add 50 μl per well of each dilution (total volume per well 200 μl; final conc. of cpds: 10 μM->1:3). If required, test further dilutions. • All concentrations are tested in duplicates. • Controls: Cells w/o cpd. (+50 μl medium/DMSO). • Cells are incubated with compounds for 5-6 days. • Day 6 or 7: Add 25 μl of alamarBlue solution to each well and incubate for 8 hours at 37° C. Measure fluorescence by exciting at 530-560 nm and measuring emission at 590 nm. 5. Evaluation • Subtract average value for medium blank from sample readings • Calculate EC50 using GraphPad Prism (Fifty)
For orientation: The colour change of resazurin is a common sign of viable cells or microbes.

Experiment [2] concerns the target PI3Kalpha (Homo sapiens (Human), UniProt P42336). As to the kind of experiment: Inhibition of PI3Kalpha-induced PIP-2 phosphorylation (filter-binding assay). In kind it is biochemical. The following applies: 33P-ATP, p85alpha/His-p110alpha, read-out: IC50 PI3Kα. From the text: Inhibition of PI3Kalpha-Induced PIP-2 Phosphorylation
This PI3Kalpha assay provides an IC50 value indicative of the activity of the compounds to inhibit PI3 kinase alpha activity. Inhibition of PI3 kinase would be expected to be indicative of activity in treating conditions of excessive or anomalous cell proliferation, such as cancers. See also J. A. Engelman, Nature Reviews Cancer, 2009, 9, 550-562; A. Carnero, Expert Opin. Investig. Drugs, 2009, 18, 1265-1277 and P. Liu et al., Nature Reviews Drug Discovery, 2009, 8, 627-64.
Method Type: Filter-Binding-Assay
Aliquoted in desired amounts and stored at −80° C. Final assay concentration 25 ng/well • Phosphotyrosin PDGFRbeta-peptide H-CGG-pY-[…]-pY-VPMLDM-NH2 was synthesized by Jerini Peptide Technologies (JPT) and used in a final conc. of 1.7 μM (stock 100 μM prepared in Assay buffer with DTT, aliquoted in desired amounts and stored at −80° C.) • Cold ATP (from Sigma; A-7699), 100 μM stock solution in H2O, use 1 μM final concentration in assay • [33P]-ATP, 370 MBq/ml from Amersham (#AH9968), use 0.5 μCi/well (10 mCi/ml) • Clear 96-well plates from Greiner (#655 162) • Filter plates: Perkin Elmer UniFilter GF/B #6005177 • Microscint 0 (from Perkin Elmer, #6013611) 2. Assay Procedure
The substrate-containing lipid vesicles are dissolved to a concentration of 0.637 mg lipid blend/ml assay buffer (with BSA, freshly added) in 50 ml Falcon->keep on ice, followed by ultrasonication (pulse of 15 sec followed by a pause of 10 sec, 4×). Compounds are serially diluted in assay buffer+6% DMSO and […] of each dilution is added per well of a 96-well plate (compounds are tested in duplicates) and mixed with 30 μl of the lipid vesicles containing PDGFR-Peptide ([…]) and PI3K alpha (25 ng/well final). The mixture is then incubated for 20 minutes at room temperature. Subsequently, 20 μl of assay buffer containing […] cold ATP and 0.5 μCi/20 μl 33P-ATP are added. The plates are then incubated at room temperature for 120 minutes (shaking with 300 rpm).
The reaction mix is transferred onto filter plates using “filtermate harvester” from Packard: filter plates are rinsed with PBS, then the reaction mix is filtered onto the filter plate, washed 5 times with PBS and are allowed to dry for 30-60 minutes at 50° C.
The plate bottom is sealed with Perkin Elmer white adhesive foil and 25 μl/well Microscint( ) are added, the top is covered with transparent adhesive foil and the plate is measured with Wallac Trilux 1450 Microbeta Counter.
As positive control serve wells containing vehicle controls (1% DMSO in assay buffer), showing non-inhibited kinase activity (high values). Wells containing assay buffer instead of enzyme can serve as control for background activity (low values).
Calculate IC50 values using the Smiley program (based on GrapPad Prism)

For experiment [3], the system named is H460 cells. Put plainly: alamarBlue H460 cell assay (antiproliferative/cytotoxicity). In kind it is cell-based. The following applies: NCI-H460; H460 human lung carcinoma cells.
Source text: as §1, §2, §3, §4, §5

The test system of experiment [4] is MB453 cells. Put plainly: alamarBlue MB453 cell assay (antiproliferative/cytotoxicity). The class given is cell-based. The following applies: Homo sapiens; MDA MB 453 breast cancer cell line.
Source text: as §1, §2, §3, §4, §5

Experiment [5] relates to U87 cells. As to the kind of experiment: U87 cell assay (antiproliferative/cytotoxicity). The conditions noted are these: U-87MG human glioblastoma cells. In kind it is cell-based.
Source text: as §1, §2, §3, §4, §5

Experiment [6] relates to MCF7 cells. Put plainly: alamarBlue MCF7 cell assay (antiproliferative/cytotoxicity). The class given is cell-based. The conditions noted are these: MCF7 human breast cancer cell line.
Source text: as §1, §2, §3, §4, §5

Chain of PI3Kalpha (P42336 whole entry): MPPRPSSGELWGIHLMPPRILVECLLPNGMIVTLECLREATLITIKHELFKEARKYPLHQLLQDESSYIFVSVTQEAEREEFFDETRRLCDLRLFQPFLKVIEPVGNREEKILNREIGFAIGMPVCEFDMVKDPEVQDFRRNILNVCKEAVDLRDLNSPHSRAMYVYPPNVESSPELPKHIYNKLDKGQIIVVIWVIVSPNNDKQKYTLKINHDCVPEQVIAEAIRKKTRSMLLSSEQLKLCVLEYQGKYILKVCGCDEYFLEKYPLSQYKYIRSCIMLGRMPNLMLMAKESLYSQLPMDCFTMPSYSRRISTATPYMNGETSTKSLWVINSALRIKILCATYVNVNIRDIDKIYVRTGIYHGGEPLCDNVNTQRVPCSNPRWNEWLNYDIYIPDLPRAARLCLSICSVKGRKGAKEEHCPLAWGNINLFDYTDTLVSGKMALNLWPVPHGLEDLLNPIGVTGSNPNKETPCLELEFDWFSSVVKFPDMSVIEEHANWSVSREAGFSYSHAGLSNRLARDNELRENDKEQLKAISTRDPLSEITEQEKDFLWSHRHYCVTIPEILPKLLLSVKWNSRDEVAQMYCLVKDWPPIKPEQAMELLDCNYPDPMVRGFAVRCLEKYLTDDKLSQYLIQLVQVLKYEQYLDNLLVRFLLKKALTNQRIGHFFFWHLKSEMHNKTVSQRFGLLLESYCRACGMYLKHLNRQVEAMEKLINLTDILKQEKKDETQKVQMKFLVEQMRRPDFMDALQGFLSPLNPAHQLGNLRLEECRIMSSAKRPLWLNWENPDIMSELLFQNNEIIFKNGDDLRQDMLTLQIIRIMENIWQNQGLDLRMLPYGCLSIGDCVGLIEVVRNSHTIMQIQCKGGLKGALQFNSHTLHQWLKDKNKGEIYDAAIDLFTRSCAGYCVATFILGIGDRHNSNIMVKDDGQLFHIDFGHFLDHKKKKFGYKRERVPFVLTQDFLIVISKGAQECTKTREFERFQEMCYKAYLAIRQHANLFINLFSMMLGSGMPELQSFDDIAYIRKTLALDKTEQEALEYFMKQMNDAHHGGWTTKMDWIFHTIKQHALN

A word on the EC50: it is the concentration giving half of the maximal effect. A lower EC50 goes with a more potent agent. As usually defined, the IC50 is the concentration that gives 50% inhibition. Take `COc1ncc(C#Cc2c(C)ncnc2N2CCOCC2)cc1NS(=O)(=O)c1cnn(C)c1` [Example I-88, N-[2-methoxy-5-[2-(4-methyl-6-morpholin-4-ylpyrimidin-5-yl)ethynyl]pyridin-3-yl]-1-methylpyrazole-4-sulfonamide]: the EC50 was 62 nM in experiment [1], 21 nM in experiment [3], 8 nM in experiment [4] and 27 nM in experiment [5]. The half-maximal inhibitory concentration (IC50) in experiment [2] was 0.55 nM.
For `COc1ncc(C#Cc2c(C)ncnc2N2CCOCC2)cc1NS(=O)(=O)c1ccc(Cl)cc1` [Example I-84, 4-Chloro-N-[2-methoxy-5-(4-methyl-6-morpholin-4-yl-pyrimidin-5-ylethynyl)-pyridin-3-yl]-benzenesulfonamide], in that order: 48 nM, 41 nM, 49 nM, 24 nM and 0.3 nM.
For `COCCN(C)c1ncnc(C)c1C#Cc1cnc(C)c(NS(=O)(=O)c2ccccc2)c1` [Example I-71, N-(5-{4-[(2-Methoxy-ethyl)-methyl-amino]-6-methyl-pyrimidin-5-ylethynyl}-2-methyl-pyridin-3-yl)-benzenesulfonamide], in that order: 1500 nM, 1620 nM, 2100 nM, 1190 nM and 5 nM.
For the compound `COc1ncc(C#Cc2c(C)ncnc2N2CCOCC2)cc1NS(=O)(=O)c1ccc(Cl)s1` [Example I-85, 5-Chloro-N-[2-methoxy-5-(4-methyl-6-morpholin-4-yl-pyrimidin-5-ylethynyl)-pyridin-3-yl]-thiophene-2-sulfonamide], the EC50 in experiment [1] was 34 nM; in experiment [3], 47 nM; in experiment [4] it was 40 nM; in experiment [5], 64 nM. For the same compound, the concentration for half-maximal inhibition (IC50) in experiment [2] was determined as 0.38 nM.
For `COc1ncc(C#Cc2c(C)ncnc2N2CCOCC2)cc1NS(=O)(=O)c1cccs1` [Example I-86, N-[2-Methoxy-5-(4-methyl-6-morpholin-4-yl-pyrimidin-5-ylethynyl)-pyridin-3-yl]-thiophene-2-sulfonamide] the same measures were 12 nM, 10 nM, 14 nM, 42 nM and 0.39 nM.
As for `CCc1nc(N)nc(N2CCC(OC)CC2)c1C#Cc1cnc(C)c(NS(C)(=O)=O)c1` [Example I-34, N-{5-[2-Amino-4-ethyl-6-(4-methoxy-piperidin-1-yl)-pyrimidin-5-ylethynyl]-2-methyl-pyridin-3-yl}-methanesulfonamide], the EC50 amounted to 74 nM in experiment [6] and 433 nM in experiment [1]. Besides, in experiment [2], the IC50 is 2 nM.
Take `COc1ncc(C#Cc2c(C)ncnc2N2CCOCC2)cc1NS(=O)(=O)c1ccc(C)o1` [Example I-89, N-[2-methoxy-5-[2-(4-methyl-6-morpholin-4-ylpyrimidin-5-yl)ethynyl]pyridin-3-yl]-5-methylfuran-2-sulfonamide]: the concentration for a half-maximal effect (EC50) in experiment [1] is 63 nM; in experiment [3], 26 nM; in experiment [4] it was 38 nM; in experiment [5] it was 42 nM. Besides, the half-maximal inhibitory concentration (IC50) in experiment [2] was 0.53 nM.
For `COc1ncc(C#Cc2c(C)ncnc2N2CCOCC2)cc1NS(=O)(=O)c1ccnn1C` [Example I-87, N-[2-methoxy-5-[2-(4-methyl-6-morpholin-4-ylpyrimidin-5-yl)ethynyl]pyridin-3-yl]-2-methylpyrazole-3-sulfonamide] the same measures were 20 nM, 30 nM, 15 nM, 54 nM and 0.45 nM.
`COC1CCN(c2ncnc(C)c2C#Cc2cnc(C)c(NS(=O)(=O)c3ccccc3)c2)CC1` [Example I-74, N-{5-[4-(4-Methoxy-piperidin-1-yl)-6-methyl-pyrimidin-5-ylethynyl]-2-methyl-pyridin-3-yl}-benzenesulfonamide]: the EC50 stood at 400 nM in experiment [1], 703 nM in experiment [3], 987 nM in experiment [4] and 557 nM in experiment [5]. The IC50 in experiment [2] is 2 nM.
For the compound `COc1ncc(C#Cc2c(C)ncnc2N2CCOCC2)cc1NS(=O)(=O)c1ccccc1C(F)(F)F` [Example I-83, 2-Trifluoromethyl-N-[2-methoxy-5-(4-methyl-6-morpholin-4-yl-pyrimidin-5-ylethynyl)-pyridin-3-yl]-benzenesulfonamide], the half-maximal effective concentration (EC50) in experiment [1] worked out at 6 nM; in experiment [3], 6 nM; in experiment [4], 7 nM; in experiment [5] it was 18 nM. In addition, the 50% inhibitory concentration (IC50) in experiment [2] is 0.44 nM.
Take `COc1ncc(C#Cc2c(C)ncnc2N2CCOCC2)cc1NS(C)(=O)=O` [Example I-81, N-[2-methoxy-5-(4-methyl-6-morpholin-4-yl-pyrimidin-5-ylethynyl)-pyridin-3-yl]-methylsulfonamide]: the EC50 in experiment [1] worked out at 76 nM; in experiment [3] it was 181 nM; in experiment [4] it was 233 nM; in experiment [5], 510 nM. Moreover, in experiment [2], the IC50 came to 0.64 nM.
`Cc1ncc(C#Cc2c(C)ncnc2NC(C)C)cc1NS(=O)(=O)c1ccccc1` [Example I-59, N-[5-(4-Isopropylamino-6-methyl-pyrimidin-5-ylethynyl)-2-methyl-pyridin-3-yl]-benzenesulfonamide]: the EC50 in experiment [1] came out at 5000 nM; in experiment [3] it was 723 nM; in experiment [4], 1930 nM; in experiment [5], 1000 nM. Moreover, the IC50 in experiment [2] was 6 nM.
On to `Cc1ncnc(N2CCOCC2)c1C#Cc1cncc(NS(C)(=O)=O)c1` [Example I-24, N-[5-(4-Methyl-6-morpholin-4-yl-pyrimidin-5-ylethynyl)-pyridin-3-yl]-methanesulfonamide], for which the figures for the EC50 in experiment [6] and in experiment [1] were 1110 nM and 2360 nM, respectively. In addition, the half-maximal inhibitory concentration (IC50) in experiment [2] worked out at 4 nM.
